Source: ChEMBL document CHEMBL3885881, “DrugMatrix”

Species: Rattus norvegicus
Assay: DrugMatrix - Regimen: Daily Repeat
Assay type: toxicity, organism-based, Sprague-Dawley
Set-up: regimen Daily Repeat, gender Male, age 6-8 weeks
Conditions: in vivo, po, route oral GAVAGE, vehicle 100 % WATER; for ABSOLUTE BASOPHIL / ABSOLUTE EOSINOPHIL / ABSOLUTE LYMPHOCYTE / ABSOLUTE MONOCYTE / ABSOLUTE SEGMENTED NEUTROPHIL / BASOPHIL / EOSINOPHIL / ERYTHROCYTE COUNT / HEMATOCRIT / HEMOGLOBIN / LEUKOCYTE COUNT / LYMPHOCYTE / MEAN CORPUSCULAR HEMOGLOBIN / MEAN CORPUSCULAR HEMOGLOBIN CONCENTRATION / MEAN CORPUSCULAR VOLUME / MONOCYTE / NEUTROPHIL / NUCLEATED RED BLOOD CELLS / PLATELET COUNT: tissue Blood; for ALANINE AMINOTRANSFERASE / ALBUMIN / ALKALINE PHOSPHATASE / ASPARTATE AMINOTRANSFERASE / BLOOD UREA NITROGEN / CARBON DIOXIDE / CHLORIDE / CHOLESTEROL / CREATINE PHOSPHOKINASE / CREATININE / GLUCOSE / LACTATE DEHYDROGENASE / LIPASE / PHOSPHORUS / POTASSIUM / SODIUM / TOTAL BILIRUBIN / TOTAL PROTEIN / URIC ACID: tissue Plasma
[1] = 0 mg/kg, 72 h, dose level Control, time 3 day
[2] = 0 mg/kg, 120 h, dose level Control, time 5 day
[3] = 30 mg/kg, 72 h, dose level Low, time 3 day

SMILES: CC(C)NCC(O)c1ccc(NS(C)(=O)=O)cc1 (centres undefined) [SOTALOL]
- ABSOLUTE BASOPHIL [1]: 0 CELLS/uL
- ABSOLUTE EOSINOPHIL [1]: 102 CELLS/uL
- ABSOLUTE LYMPHOCYTE [1]: 12758 CELLS/uL
- ABSOLUTE MONOCYTE [1]: 197.17 CELLS/uL
- ABSOLUTE SEGMENTED NEUTROPHIL [1]: 1259.5 CELLS/uL
- BASOPHIL [1]: 0%
- EOSINOPHIL [1]: 0.83%
- ERYTHROCYTE COUNT [1]: 5.3 x10E6/uL
- HEMATOCRIT [1]: 33.47%
- HEMOGLOBIN [1]: 13.12 G/DL
- LEUKOCYTE COUNT [1]: 14.32 x10E3/uL
- LYMPHOCYTE [1]: 89.33%
- MEAN CORPUSCULAR HEMOGLOBIN [1]: 24.8 pg
- MEAN CORPUSCULAR HEMOGLOBIN CONCENTRATION [1]: 39.18 G/DL
- MEAN CORPUSCULAR VOLUME [1]: 63.25 fL
- MONOCYTE [1]: 1.33%
- NEUTROPHIL [1]: 8.5%
- NUCLEATED RED BLOOD CELLS [1]: 0 /100WBC
- PLATELET COUNT [1]: 1313.17 x10E3/uL
- ALANINE AMINOTRANSFERASE [1]: 52.67 u/L
- ALBUMIN [1]: 4.05 G/DL
- ALKALINE PHOSPHATASE [1]: 372 u/L
- ASPARTATE AMINOTRANSFERASE [1]: 82.83 u/L
- BLOOD UREA NITROGEN [1]: 15 mg/dL
- CARBON DIOXIDE [1]: 25.67 mmol/L
- CHLORIDE [1]: 102.17 MEQ/L
- CHOLESTEROL [1]: 68.83 mg/dL
- CREATINE PHOSPHOKINASE [1]: 285 u/L
- CREATININE [1]: 0.18 mg/dL
- GLUCOSE [1]: 149.17 mg/dL
- LACTATE DEHYDROGENASE [1]: 263.83 u/L
- LIPASE [1]: 10.17 u/L
- PHOSPHORUS [1]: 12.58 mg/dL
- POTASSIUM [1]: 6.58 MEQ/L
- SODIUM [1]: 144.22 MEQ/L
- TOTAL BILIRUBIN [1]: 0.22 mg/dL
- TOTAL PROTEIN [1]: 5.83 G/DL
- URIC ACID [1]: 1.58 mg/dL
- ABSOLUTE BASOPHIL [2]: 0 CELLS/uL
- ABSOLUTE EOSINOPHIL [2]: 24 CELLS/uL
- ABSOLUTE LYMPHOCYTE [2]: 11134.17 CELLS/uL
- ABSOLUTE MONOCYTE [2]: 56.33 CELLS/uL
- ABSOLUTE SEGMENTED NEUTROPHIL [2]: 1235.5 CELLS/uL
- BASOPHIL [2]: 0%
- EOSINOPHIL [2]: 0.17%
- ERYTHROCYTE COUNT [2]: 5.68 x10E6/uL
- HEMATOCRIT [2]: 35.72%
- HEMOGLOBIN [2]: 13.93 G/DL
- LEUKOCYTE COUNT [2]: 12.45 x10E3/uL
- LYMPHOCYTE [2]: 89.5%
- MEAN CORPUSCULAR HEMOGLOBIN [2]: 24.63 pg
- MEAN CORPUSCULAR HEMOGLOBIN CONCENTRATION [2]: 39.13 G/DL
- MEAN CORPUSCULAR VOLUME [2]: 62.97 fL
- MONOCYTE [2]: 0.5%
- NEUTROPHIL [2]: 9.83%
- NUCLEATED RED BLOOD CELLS [2]: 0 /100WBC
- PLATELET COUNT [2]: 1204 x10E3/uL
- ALANINE AMINOTRANSFERASE [2]: 59.5 u/L
- ALBUMIN [2]: 4.38 G/DL
- ALKALINE PHOSPHATASE [2]: 415.67 u/L
- ASPARTATE AMINOTRANSFERASE [2]: 91.33 u/L
- BLOOD UREA NITROGEN [2]: 17 mg/dL
- CARBON DIOXIDE [2]: 26.33 mmol/L
- CHLORIDE [2]: 104.17 MEQ/L
- CHOLESTEROL [2]: 77 mg/dL
- CREATINE PHOSPHOKINASE [2]: 249.67 u/L
- CREATININE [2]: 0.21 mg/dL
- GLUCOSE [2]: 148.33 mg/dL
- LACTATE DEHYDROGENASE [2]: 168.5 u/L
- LIPASE [2]: 10.17 u/L
- PHOSPHORUS [2]: 12.92 mg/dL
- POTASSIUM [2]: 7.09 MEQ/L
- SODIUM [2]: 148.37 MEQ/L
- TOTAL BILIRUBIN [2]: 0.23 mg/dL
- TOTAL PROTEIN [2]: 6.3 G/DL
- URIC ACID [2]: 1.77 mg/dL
- ABSOLUTE BASOPHIL [3]: 0 CELLS/uL
- ABSOLUTE EOSINOPHIL [3]: 90.67 CELLS/uL
- ABSOLUTE LYMPHOCYTE [3]: 14675.33 CELLS/uL
- ABSOLUTE MONOCYTE [3]: 254 CELLS/uL
- ABSOLUTE SEGMENTED NEUTROPHIL [3]: 1113.33 CELLS/uL
- BASOPHIL [3]: 0%
- EOSINOPHIL [3]: 0.67%
- ERYTHROCYTE COUNT [3]: 5.44 x10E6/uL
- HEMATOCRIT [3]: 34.57%
- HEMOGLOBIN [3]: 13.43 G/DL
- LEUKOCYTE COUNT [3]: 16.13 x10E3/uL
- LYMPHOCYTE [3]: 91%
- MEAN CORPUSCULAR HEMOGLOBIN [3]: 24.7 pg
- MEAN CORPUSCULAR HEMOGLOBIN CONCENTRATION [3]: 38.93 G/DL
- MEAN CORPUSCULAR VOLUME [3]: 63.47 fL
- MONOCYTE [3]: 1.67%
- NEUTROPHIL [3]: 6.67%
- NUCLEATED RED BLOOD CELLS [3]: 0.67 /100WBC
- PLATELET COUNT [3]: 1241 x10E3/uL
- ALANINE AMINOTRANSFERASE [3]: 52.67 u/L
- ALBUMIN [3]: 4.13 G/DL
- ALKALINE PHOSPHATASE [3]: 380.33 u/L
- ASPARTATE AMINOTRANSFERASE [3]: 95.67 u/L
- BLOOD UREA NITROGEN [3]: 15 mg/dL
- CARBON DIOXIDE [3]: 25.67 mmol/L
- CHLORIDE [3]: 102 MEQ/L
- CHOLESTEROL [3]: 74 mg/dL
- CREATINE PHOSPHOKINASE [3]: 490.33 u/L
- CREATININE [3]: 0.16 mg/dL
- GLUCOSE [3]: 152.33 mg/dL
- LACTATE DEHYDROGENASE [3]: 497 u/L
- LIPASE [3]: 10.33 u/L
- PHOSPHORUS [3]: 13.97 mg/dL
- POTASSIUM [3]: 6.87 MEQ/L
- SODIUM [3]: 144.53 MEQ/L
- TOTAL BILIRUBIN [3]: 0.23 mg/dL
- TOTAL PROTEIN [3]: 5.8 G/DL
- URIC ACID [3]: 2.13 mg/dL
